According to patent US10273218B2, “BCL-3 inhibitors” (University College Cardiff Consultants Limited, priority 2014, dated 2019):

Experiments:
[1] = system: NF-κB activity in MDA-MB-231 cells; assay: NF-kB luciferase assay, EGF-induced NF-kB activity; type: cell-based, human; conditions: 1 micromolar, 20 hours, then 100 ng/ml EGF for 3 hours
Method: MDA-MB-231 is a highly metastatic, human basal epithelial cell line isolated from the pleural effusion of an adenocarcinoma. The cells are ‘triple negative’ as they lack estrogen, progesterone and ERBB2 receptor and they strongly over-express EGFR. The expression of receptors in this line has been confirmed by the host laboratory.
For NF-κB luciferase assays, cells are seeded into clear bottom black 96-well plates (Corning Inc., Lowell, US) in antibiotic free culture media in appropriate density. After about 20-24 hrs, cells are transfected with 10 ng of 3×κB luciferase plasmid and 10 ng of pcDNA3.1-Lacl plasmid per well. […]
After 48 hrs post-transfection with luciferase reporter plasmid, the media is aspirated and cells are lyzed using 50 μl/well of Glo-lysis buffer (Promega, Southampton, UK). […] Subsequently, 30 μl/well of Bright-Glo luciferase substrate (Promega, Southampton, UK) is added to the original plate and is assayed immediately for luminescence activity. The luminescence produced from either reaction is read using a Fluorostar Optima plate reader (BMG tabtech, Bucks, UK). […]
After 48 hrs post-transfection with luciferase reporter plasmid, the media was aspirated and cells were lyzed using 50 μl/well of Glo-lysis buffer (Promega, Southampton, UK). […] The luminescence produced from either reaction was read using a Flurostar Optima plate reader (BMG tabtech, Bucks, UK). […]

[2] = system: human breast cancer MDA-MB-231 xenograft; assay: in vivo metastasis mouse Model 1 (seeding and early colonization of circulating tumour cells); set-up: species or system mice; conditions: 3.5 mg/kg intraperitoneally daily; MDA-MB-231
Method: In all experiments, each compound was administered by intraperitoneally at 3.5 mg/kg.
(§1) One model (Model 1) studied the effect of the compound's ability to inhibit the seeding and early colonization of circulating tumour cells at distal sites, most commonly in the lungs and liver. Human tumour cell lines were injected into the bloodstream of recipient mice, followed by single daily intraperitoneal injections of the compound (3.5 mg/kg in 1% DMSO) for 10 consecutive days. Tumour burden was monitored longitudinally for up to 8 weeks in vivo by live luminescence imaging, and subsequently histology performed on affected organs at the end of the experiment.
as §1, with “Model 1 tested” for “One model (Model 1) studied”, “Bcl3i compounds” for “the compound's ability”, “Bcl3 inhibitor” for “the compound”
The X axis represents the number of days after xenograft and the Y axis is the relative luminescence of the thoracic region by Xenon IVIS scanning of mice following injection of d-luciferin for 10 minutes.
MDA-MB-231 human breast cancer cells were used in each of the three xenograft models of metastatic breast cancer.

COc1ccc(C(=O)Nc2ccccc2C(=O)NCCN2CCOCC2)c(F)c1 [Compound 12, 2-fluoro-4-methoxy-N-(2-((2-morpholinoethyl)carbamoyl)phenyl) benzamide]
greater suppression of NF-kB activity as compared to reference compound A [1]: 25%
suppression of EGF induced NF-kB activity ([1]; MDA-MB-231 NF-kB promoter luciferase reporter): 100%
effect on tumour cell seeding at distal sites (FIG. 8) [2]: most profound effect
